The values that follow come from publication PMC11061835, “Elucidating the Mechanism of Metabolism of Cannabichromene by Human Cytochrome P450s” (Journal of Natural Products, 2024).

Data set [1] concerns the target T1, CYP2C8 (Homo sapiens, UniProt P10632).
T1 construct: His-tag; made in house; host or cells: E. coli DH-5α with pTGro7 plasmid
T1 sequence (P10632 1-490): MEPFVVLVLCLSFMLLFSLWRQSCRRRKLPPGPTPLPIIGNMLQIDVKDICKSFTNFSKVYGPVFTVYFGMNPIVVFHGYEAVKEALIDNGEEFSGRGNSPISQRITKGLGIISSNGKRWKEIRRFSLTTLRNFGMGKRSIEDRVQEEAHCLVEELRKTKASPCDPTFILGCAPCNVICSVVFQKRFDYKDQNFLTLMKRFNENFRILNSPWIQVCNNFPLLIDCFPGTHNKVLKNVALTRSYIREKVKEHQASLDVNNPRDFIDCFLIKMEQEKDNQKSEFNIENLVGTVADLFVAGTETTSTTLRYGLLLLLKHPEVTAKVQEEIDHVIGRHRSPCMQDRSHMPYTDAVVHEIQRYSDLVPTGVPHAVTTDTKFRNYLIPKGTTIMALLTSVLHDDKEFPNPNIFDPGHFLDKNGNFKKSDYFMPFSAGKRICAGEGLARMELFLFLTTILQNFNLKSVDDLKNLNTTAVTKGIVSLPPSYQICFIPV
The experiment in a line: Spectroscopic titration (Soret shift), CYP2C8. The data set is classed as binding. The conditions noted are these: CYP2C8, absence of CPR. The protocol:
(§1) CBC binding to various CYPs was determined by analyzing the Soret shift from ∼417 to ∼390 nm. CBC (stock 10 mM) was dissolved in ethanol and titrated with different CYPs at room temperature. Buffer-exchanged CYP2J2, CYP2D6, CYP3A4, and CYP2C8 (concentrations of proteins were kept between 4 and 5 μM) were dissolved in 0.1 M phosphate buffer (pH = 7.4), and initial spectra were recorded from 200 to 800 nm with a prominent peak at 417 nm. The concentration of CBC was varied from 0 to 100 μM keeping the final concentration of substrate in EtOH not more than 1% in cuvette. 0–4 μL of stock CBC was added using a Hamilton syringe in both the sample and blank cuvettes. The mixture was incubated for 5 min at 37 °C, and absorbance spectra were recorded using a Cary Bio 300 UV–vis spectrophotometer (Agilent Technologies, Santa Clara, CA). To eliminate the background absorbance, we derived the final spectra by […].

For data set [2], the target named is CYP2D6 (Homo sapiens, UniProt P10635). Briefly: Spectroscopic titration (Soret shift), CYP2D6. The data set is classed as binding. On the set-up: His-tag; made in house; host or cells: E. coli DH-5α with pTGro7 plasmid. The conditions noted are these: CYP2D6, absence of CPR. As to the method: as §1
In data set [3] the test system is TRPV1. Details: method as in PMID 30697147. To be noted: read-out: agonism toward TRPV1; cited from earlier work.
Data set [4] has as its target T2, CYP2C8 in the presence of CPR (Homo sapiens, UniProt P10632).
T2 construct: His-tag; made in house; host or cells: E. coli DH-5α with pTGro7 plasmid (CYP)
T2 sequence (P10632 1-490): T1 sequence (P10632 1-490)
T2 sequence (P16435 1-677 partner): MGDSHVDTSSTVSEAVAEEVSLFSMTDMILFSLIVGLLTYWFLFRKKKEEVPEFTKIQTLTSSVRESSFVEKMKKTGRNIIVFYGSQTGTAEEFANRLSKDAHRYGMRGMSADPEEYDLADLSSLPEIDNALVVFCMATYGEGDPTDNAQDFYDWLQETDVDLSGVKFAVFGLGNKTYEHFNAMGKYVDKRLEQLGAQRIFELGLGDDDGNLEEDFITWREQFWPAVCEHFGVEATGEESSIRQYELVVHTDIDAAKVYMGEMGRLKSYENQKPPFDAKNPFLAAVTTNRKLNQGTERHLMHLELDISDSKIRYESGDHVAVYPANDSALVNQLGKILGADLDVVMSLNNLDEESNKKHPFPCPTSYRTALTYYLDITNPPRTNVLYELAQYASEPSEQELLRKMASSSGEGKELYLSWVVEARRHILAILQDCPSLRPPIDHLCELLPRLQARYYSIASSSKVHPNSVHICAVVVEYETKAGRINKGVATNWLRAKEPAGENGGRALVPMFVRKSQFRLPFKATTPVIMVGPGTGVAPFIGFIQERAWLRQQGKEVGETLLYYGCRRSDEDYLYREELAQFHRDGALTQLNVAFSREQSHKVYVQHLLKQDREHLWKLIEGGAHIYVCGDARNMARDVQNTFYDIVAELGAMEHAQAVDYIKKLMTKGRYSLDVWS
Briefly: Spectroscopic titration, CYP2C8–CPR complex. The data set is classed as binding. The protocol: For CBC titration to CYP–CPR complex, initially CYPs were dissolved in 400 μL of 0.1 M phosphate buffer (pH = 7.4) keeping the concentration between […]. Following this 50 μL of CPR (50 μM stock) was added to both cuvettes, and the final concentration of both of the proteins was 5–6 μM. Both proteins were initially mixed and incubated for 5 min followed by titration with CBC in the same process as mentioned above. The substrate-bound spectra were then subtracted from substrate-free spectra, and the extent of binding was analyzed using Origin Pro 2020.

“And” between values parts separate entries of the source, which are not always exact repeats. Equal entries are not always repeated. A value given as a limit tells only on which side of the number the result lay.

Chain of CYP2D6 (P10635 whole entry): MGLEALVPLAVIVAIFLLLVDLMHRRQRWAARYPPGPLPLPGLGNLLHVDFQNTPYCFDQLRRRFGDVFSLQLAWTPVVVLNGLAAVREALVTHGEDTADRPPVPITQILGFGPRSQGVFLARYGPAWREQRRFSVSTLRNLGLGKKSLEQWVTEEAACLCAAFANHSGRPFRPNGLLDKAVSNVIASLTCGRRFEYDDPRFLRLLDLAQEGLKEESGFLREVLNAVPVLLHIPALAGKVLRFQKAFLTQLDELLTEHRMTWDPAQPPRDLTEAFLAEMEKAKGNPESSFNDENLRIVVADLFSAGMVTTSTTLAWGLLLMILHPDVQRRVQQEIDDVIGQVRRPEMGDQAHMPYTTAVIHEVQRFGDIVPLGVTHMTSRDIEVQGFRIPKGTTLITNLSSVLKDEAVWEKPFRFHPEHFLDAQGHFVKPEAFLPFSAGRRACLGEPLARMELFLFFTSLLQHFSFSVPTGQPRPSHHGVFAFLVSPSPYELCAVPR

With `CCCCCc1cc(O)c2c(c1)OC(C)(CCC=C(C)C)C=C2` (stereo not shown) [CBC, Cannabichromene], the “ΔAmax (spin state change due to heme perturbation)” value in data set [1] is 0.15 ± 0.00 and ~0.15; in data set [2], 0.09 ± 0.01 and ~0.09; in data set [4], 0.14 ± 0.00 and ~0.15. The Kd in data set [1] (read-out: Kd(app)) was 38.1 µM and ~38 µM; in data set [2] (read-out: Kd(app)), 11.4 µM and ~11 µM; in data set [4] (read-out: Kd(app)) it was 8.23 µM and ~8 µM and < 10 µM. For the same molecule, in data set [3], the EC50 was below 10 µM.
